Assay results as given in ChEMBL document CHEMBL5537177, “Discovery of Potent Antimalarial Type II Kinase Inhibitors with Selectivity over Human Kinases” (J Med Chem, 2024).
Calls of active or inactive are those of the source. The calls are words filed in the database; no cut-off is given here.

Legend:
Ephrin type-A receptor 2 = Ephrin type-A receptor 2 (Homo sapiens, UniProt P29317); assay: Inhibition of human EphA2 by FRET assay
Plasmodium falciparum [1] = assay: Antiplasmodial activity against multidrug-resistant Plasmodium falciparum Dd2 at ring stage infected in A+ erythrocytes assessed as parasite growth reduction incubated for 72 hrs by SYBR Green I dye based analysis; assay type: functional, organism-based; conditions: Dd2, Erythrocyte
Plasmodium falciparum [2] = assay: Antiplasmodial activity against drug-sensitive Plasmodium falciparum 3D7 at ring stage infected in A+ erythrocytes assessed as parasite growth reduction incubated for 72 hrs by SYBR Green I dye based analysis; assay type: functional, organism-based; conditions: 3D7, Erythrocyte
Plasmodium falciparum [3] = assay: Resistance index, ratio of EC50 for multidrug-resistant Plasmodium falciparum Dd2 at ring stage infected in A+ erythrocytes to EC50 for drug-sensitive Plasmodium falciparum 3D7 at ring stage infected in A+ erythrocytes; assay type: organism-based; conditions: human
[4] = Metabolic stability in mouse liver microsomes assessed as half life; assay type: ADME, Liver cells
[5] = Metabolic stability in mouse liver microsomes assessed as intrinsic clearance; assay type: ADME, Liver cells
[6] = Half life in mouse at 2 mg/kg, iv; assay type: ADME, organism-based; conditions: in vivo
[7] = Tmax in mouse at 2 mg/kg, iv; assay type: ADME, organism-based; conditions: in vivo
[8] = Cmax in mouse at 2 mg/kg, iv; assay type: ADME, organism-based; conditions: in vivo
[9] = AUC (last) in mouse at 2 mg/kg, iv; assay type: ADME, organism-based; conditions: in vivo
[10] = Volume of distribution at steady state in mouse at 2 mg/kg, iv; assay type: ADME, organism-based; conditions: in vivo, read-out: Vdss
[11] = Half life in mouse at 10 mg/kg, po; assay type: ADME, organism-based; conditions: in vivo
[12] = Tmax in mouse at 10 mg/kg, po; assay type: ADME, organism-based; conditions: in vivo
[13] = AUC (last) in mouse at 10 mg/kg, po; assay type: ADME, organism-based; conditions: in vivo
[14] = AUC (infinity) in mouse at 10 mg/kg, po; assay type: ADME, organism-based; conditions: in vivo
[15] = Clearance in mouse at 10 mg/kg, po; assay type: ADME, organism-based; conditions: in vivo
Plasmodium berghei [16] = assay: (§1) Antimalarial activity against […] Plasmodium berghei sporozoites expressing GFP-Luc SMcon infected in Swiss Webster mouse assessed as reduction in parasitemia at 15 to 50 mg/kg, iv pretreated for 6 hrs followed by parasite infection measured for 2 to 16 days post-infection by SYBR Green I dye based flow cytometry; assay type: functional, organism-based; conditions: dose 15-50 mg/kg, time 2.25-16.25 day
Plasmodium berghei [17] = assay: as §1, with “decrease” for “reduction”, “recrudescence” for “parasitemia”, “after 90” for “for 2 to 16”; assay type: functional, organism-based; conditions: dose 15-50 mg/kg, time 90.25 day
Plasmodium berghei [18] = assay: as §1, with “15” for “15 to 50”, “measured after” for “measured for”, “to 6” for “to 16”, “by IVIS imaging analysis” for “by SYBR Green I dye based flow cytometry”; assay type: functional, organism-based; conditions: time 2.25-6.25 day
Plasmodium falciparum [19] = assay: Parasiticidal activity against asynchronous blood-stage Plasmodium falciparum Dd2 at 10 times EC50 treated for 12 hrs followed by compound washout and measured for 4 days by flow cytometry; assay type: functional, organism-based
Plasmodium falciparum [20] = assay: Antimalarial activity against synchronous blood-stage Plasmodium falciparum 3D7 assessed as duration of lag phase at 10 times EC50 treated every 24 hrs for 120 hrs followed by compound washout and subsequent addition of RBCs measured after 21 days by parasite reduction ratio assay; assay type: functional
Plasmodium falciparum [21] = assay: Antimalarial activity against synchronous blood-stage Plasmodium falciparum 3D7 assessed as parasite clearance time at 10 times EC50 treated every 24 hrs for 120 hrs followed by compound washout and subsequent addition of RBCs measured after 21 days by parasite reduction ratio assay; assay type: functional
Plasmodium falciparum [22] = assay: Antimalarial activity against synchronized Plasmodium falciparum Dd2 assessed as absence of rightward shift of YOYO-1 peak at 5 times EC50 treated 6 hrs post-invasion measured after 54 hrs post-invasion by flow cytometry; assay type: functional, organism-based; conditions: time 48.0 hrs
Plasmodium falciparum [23] = assay: Antimalarial activity against synchronized Plasmodium falciparum Dd2 assessed as delay in rightward shift of YOYO-1 peak at 5 times EC50 treated 18 to 30 hrs post-invasion measured after 54 hrs post-invasion by flow cytometry; assay type: functional, organism-based; conditions: time 24-36 hrs
Plasmodium falciparum [24] = assay: Antimalarial activity against synchronized Plasmodium falciparum Dd2 at 5 times EC50 treated 42 hrs post-invasion measured after 54 hrs post-invasion by YOYO-1 staining based flow cytometry; assay type: functional, organism-based; conditions: time 12.0 hrs
Plasmodium falciparum [25] = assay: Antimalarial activity against synchronized Plasmodium falciparum Dd2 assessed as reduction in parasite growth at early asexual stage treated 36 hrs post-invasion measured after 72 hrs by SYBR green I dye based microscopy; assay type: functional, organism-based
Plasmodium falciparum [26] = assay: (§2) Antimalarial activity against artemisinin-sensitive synchronized early ring stage Plasmodium falciparum IPC 5188 (MRA-1239) clinical isolate assessed as decrease in parasite survival at ring stage at 10 times EC50 treated for 6 hrs followed by compound removal measured after 72 hrs by geimsa staining based microscopy; assay type: functional, organism-based
Plasmodium falciparum [27] = assay: as §2, with “artemisinin-resistant” for “artemisinin-sensitive”, “5202 (MRA-1240)” for “5188 (MRA-1239)”; assay type: functional, organism-based
Plasmodium falciparum [28] = assay: as §2, with “artemisinin/piperaquine-resistant” for “artemisinin-sensitive”, “6261 (MRA-1284)” for “5188 (MRA-1239)”; assay type: functional, organism-based
Plasmodium falciparum [29] = assay: Antimalarial activity against synchronized early ring stage Plasmodium falciparum 3D7 (MRA-152) clinical isolate assessed as decrease in parasite survival at ring stage at 10 times EC50 treated for 6 hrs followed by compound removal measured after 72 hrs by geimsa staining based microscopy; assay type: functional, organism-based
Plasmodium falciparum [30] = assay: (§3) Antimalarial activity against synchronized early ring stage Plasmodium falciparum 3D7 (MRA-152) clinical isolate assessed as decrease in parasite survival at ring stage at 10 times EC50 treated for 6 to 48 hrs followed by compound removal measured after 72 hrs by geimsa staining based microscopy; assay type: functional, organism-based
Plasmodium falciparum [31] = assay: as §2, with “artemisinin/piperaquine-sensitive” for “artemisinin-sensitive”, “6 to 48” for “6”; assay type: functional, organism-based
Plasmodium falciparum [32] = assay: as §3, with “against artemisinin-resistant/piperaquine-sensitive” for “against”, “IPC 5202 (MRA-1240)” for “3D7 (MRA-152)”; assay type: functional, organism-based
Plasmodium falciparum [33] = assay: Antimalarial activity against patient-derived ring-stage Plasmodium falciparum clinical isolate from Patongo town of Uganda infected in O+ RBCs assessed as reduction in parasitemia incubated for 72 hrs by SYBR green I dye based analysis; assay type: functional, organism-based, RBC; conditions: Erythrocyte
Plasmodium falciparum [34] = assay: Antimalarial activity against patient-derived ring-stage Plasmodium falciparum clinical isolate from Tororo town of Uganda infected in O+ RBCs assessed as reduction in parasitemia incubated for 72 hrs by SYBR green I dye based analysis; assay type: functional, organism-based, RBC; conditions: Erythrocyte
Plasmodium falciparum [35] = assay: Antimalarial activity against Plasmodium falciparum harboring AcAS A597V mutation assessed as reduction in parasitemia incubated for 72 hrs by SYBR green I dye based analysis; assay type: functional, organism-based
Plasmodium falciparum [36] = assay: Resistance development in blood-stage Plasmodium falciparum Dd2-B2 assessed as drug irresistibility at 1 to 2 times EC50 measured till death; assay type: functional, organism-based
Plasmodium falciparum [37] = assay: Antimalarial activity in blood-stage Plasmodium falciparum Dd2-B2 infected in human O+ erythrocytes assessed as minimum inoculum of resistance at 3 times […] measured for 50 days by blood smear analysis; assay type: functional; conditions: time 50 day
Plasmodium falciparum [38] = assay: microbe, parasite or virus in culture; conditions: Dd2, 72 h
Description: Antiplasmodial activity against asynchronous Plasmodium falciparum Dd2 assessed as parasite growth reduction incubated for 72 hrs by SYBR Green I dye based analysis

Plasmodium falciparum [39] = assay: microbe, parasite or virus in culture; conditions: Dd2, 72 h; remark: listed apart in the source
Description: Antimalarial activity against wild-type Plasmodium falciparum Dd2 assessed as reduction in parasitemia incubated for 72 hrs by SYBR green I dye based analysis

Ephrin type-A receptor 2, sequence (P29317 whole entry): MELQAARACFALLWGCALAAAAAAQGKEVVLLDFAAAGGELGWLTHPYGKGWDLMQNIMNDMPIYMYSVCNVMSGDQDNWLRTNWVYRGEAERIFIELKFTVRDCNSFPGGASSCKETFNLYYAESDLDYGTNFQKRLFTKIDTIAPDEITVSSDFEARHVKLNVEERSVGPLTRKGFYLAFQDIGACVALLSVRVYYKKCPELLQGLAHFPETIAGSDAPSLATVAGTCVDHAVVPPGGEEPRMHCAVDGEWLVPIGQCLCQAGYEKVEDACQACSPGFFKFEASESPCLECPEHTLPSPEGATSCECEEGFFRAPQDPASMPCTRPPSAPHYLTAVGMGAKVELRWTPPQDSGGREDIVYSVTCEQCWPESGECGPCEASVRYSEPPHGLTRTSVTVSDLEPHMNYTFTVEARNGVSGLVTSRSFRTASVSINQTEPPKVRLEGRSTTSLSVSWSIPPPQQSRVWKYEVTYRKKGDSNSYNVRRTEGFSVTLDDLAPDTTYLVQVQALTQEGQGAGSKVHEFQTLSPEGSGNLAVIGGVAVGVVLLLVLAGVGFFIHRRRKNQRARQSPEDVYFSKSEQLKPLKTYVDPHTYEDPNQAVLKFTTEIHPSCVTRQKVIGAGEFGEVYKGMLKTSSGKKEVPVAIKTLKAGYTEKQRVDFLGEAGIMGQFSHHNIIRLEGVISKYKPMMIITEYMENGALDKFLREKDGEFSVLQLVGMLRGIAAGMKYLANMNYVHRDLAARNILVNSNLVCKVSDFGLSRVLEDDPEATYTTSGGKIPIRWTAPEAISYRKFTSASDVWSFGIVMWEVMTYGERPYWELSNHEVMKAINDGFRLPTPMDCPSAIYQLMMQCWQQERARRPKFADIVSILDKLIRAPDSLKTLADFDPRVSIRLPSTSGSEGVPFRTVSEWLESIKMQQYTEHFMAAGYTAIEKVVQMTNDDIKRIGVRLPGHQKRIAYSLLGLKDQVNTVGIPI

SMILES: CCN1CCN(Cc2ccc(NC(=O)c3cc(Cl)cc(NC(=O)c4cncc(-c5cccs5)c4)c3)cc2C(F)(F)F)CC1
- IC50 (Ephrin type-A receptor 2): > 10 µM
- EC50 (Plasmodium falciparum [1]): 0.058 µM
- EC50 (Plasmodium falciparum [2]): 0.042 µM
- Ratio EC50 (Plasmodium falciparum [3]): 1.4
- t1/2 [4]: 1.32 h
- intrinsic clearance [5]: 9 µL/min/mg
- half-life [6]: 4.16 h
- Tmax [7]: 4.8 min
- Cmax [8]: 11100 ng/mL
- AUC(0-t) [9]: 6860 ng·h/mL
- Vd [10]: 0.84 L/kg
- half-life [11]: 5.71 h
- Tmax [12]: 4.67 h
- AUC(0-t) [13]: 866 ng·h/mL
- AUC(0-inf) [14]: 1640 ng·h/mL
- CL/F [15]: 109 mL/min/kg
- Activity (Plasmodium berghei [16]): Active
- Activity (Plasmodium berghei [17]): Active
- Activity (Plasmodium berghei [18]): Active
- Activity (Plasmodium falciparum [19]): Active
- Time (Plasmodium falciparum [20]): 0 h
- T99.9% (Plasmodium falciparum [21]): < 32 h
- Activity (Plasmodium falciparum [22]): Active
- Activity (Plasmodium falciparum [23]): Active
- Activity (Plasmodium falciparum [24]): Active
- EC50 (Plasmodium falciparum [25]): 0.08 µM
- Activity (Plasmodium falciparum [26]): inactive
- Activity (Plasmodium falciparum [27]): inactive
- Activity (Plasmodium falciparum [28]): inactive
- Activity (Plasmodium falciparum [29]): inactive
- EC50 (Plasmodium falciparum [30]): 0.0611 µM
- EC50 (Plasmodium falciparum [31]): 0.0737 µM
- EC50 (Plasmodium falciparum [32]): 0.0722 µM
- EC50 (Plasmodium falciparum [33]): 0.0092 µM
- EC50 (Plasmodium falciparum [34]): 0.0092 µM
- EC50 (Plasmodium falciparum [35]): 0.0405 µM
- Activity (Plasmodium falciparum [36]): Active
- Activity (Plasmodium falciparum [37]): >7
- EC50 (Plasmodium falciparum [38]): 0.08 µM
- EC50 (Plasmodium falciparum [39]): 0.0512 µM
